Results on 4 molecules are retold here after patent US20140057915A1, “KINASE INHIBITORS” (TOPIVERT PHARMA LIMITED, priority 2012, published 2014).

Data set [1] addresses cSrc (Homo sapiens, UniProt P12931). Briefly: c-Src enzyme inhibition (FRET). The format is biochemical. In short, it runs like this: (§1)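 2 hr RT enzyme + cpd (added solns 4/0.4/0.04/0.004 μg/mL); + FRET peptide (8 μM soln) + ATP soln (c-Src 800 μM, Syk 60 μM), 1 hr; protease development 1 hr; read donor/acceptor emission ratio.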
Data set [2] relates to IFN gamma release, PBMCs. The data set is described as follows: IFN gamma release in CD3/CD28 stimulated PBMC cells. Particulars: Homo sapiens, read-out: IC50 Values for Inhibition of Cytokine Release, PBMCs, IFNγ. It counts as cell-based. The method, then: (§2) (c) IL-2 and IFN Gamma Release in CD3/CD28 Stimulated PBMC Cells
(§3) PBMCs from healthy subjects are separated from whole blood using a density gradient (Lymphoprep, Axis-Shield Healthcare). Cells are added to a 96 well plate pre-coated with a mixture of […] monoclonal antibodies (0.3 ug/ml eBioscience and 3 ug/ml BD Pharmingen respectively). Compound at the desired concentration is then added to the wells and the plate left for 3 days under normal tissue culture conditions. Supernatants are harvested and IL-2 and IFN gamma release determined by Sandwich ELISA (Duo-set, R&D System). The IC50 is determined from the dose response curve.

For data set [3], the target named is T1, GSK3α (Homo sapiens, UniProt P49840). Briefly: GSK 3α enzyme inhibition (FRET), Method 2. The format is biochemical. To be noted: Table 4a2, different laboratory.
T1 sequence (P49840 whole entry): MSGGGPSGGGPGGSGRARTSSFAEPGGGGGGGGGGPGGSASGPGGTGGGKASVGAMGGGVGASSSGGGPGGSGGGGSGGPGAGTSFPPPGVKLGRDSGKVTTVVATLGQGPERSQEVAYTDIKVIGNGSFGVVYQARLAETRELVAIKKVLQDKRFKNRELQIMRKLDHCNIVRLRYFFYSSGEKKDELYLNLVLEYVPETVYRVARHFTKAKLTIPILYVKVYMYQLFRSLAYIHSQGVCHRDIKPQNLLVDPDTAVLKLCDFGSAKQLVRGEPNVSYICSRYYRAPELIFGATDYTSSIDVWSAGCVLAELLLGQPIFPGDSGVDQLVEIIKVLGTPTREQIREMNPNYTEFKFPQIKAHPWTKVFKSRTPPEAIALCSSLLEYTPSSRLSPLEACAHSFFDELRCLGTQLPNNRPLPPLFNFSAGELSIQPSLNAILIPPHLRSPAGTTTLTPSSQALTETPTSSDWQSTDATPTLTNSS
In data set [4] the target is T2, human ether a go-go (hERG) channel (Homo sapiens, UniProt Q12809).
T2 construct: a Chinese Hamster Lung cell line stably expressing the full length hERG channel
T2 sequence (Q12809 whole entry): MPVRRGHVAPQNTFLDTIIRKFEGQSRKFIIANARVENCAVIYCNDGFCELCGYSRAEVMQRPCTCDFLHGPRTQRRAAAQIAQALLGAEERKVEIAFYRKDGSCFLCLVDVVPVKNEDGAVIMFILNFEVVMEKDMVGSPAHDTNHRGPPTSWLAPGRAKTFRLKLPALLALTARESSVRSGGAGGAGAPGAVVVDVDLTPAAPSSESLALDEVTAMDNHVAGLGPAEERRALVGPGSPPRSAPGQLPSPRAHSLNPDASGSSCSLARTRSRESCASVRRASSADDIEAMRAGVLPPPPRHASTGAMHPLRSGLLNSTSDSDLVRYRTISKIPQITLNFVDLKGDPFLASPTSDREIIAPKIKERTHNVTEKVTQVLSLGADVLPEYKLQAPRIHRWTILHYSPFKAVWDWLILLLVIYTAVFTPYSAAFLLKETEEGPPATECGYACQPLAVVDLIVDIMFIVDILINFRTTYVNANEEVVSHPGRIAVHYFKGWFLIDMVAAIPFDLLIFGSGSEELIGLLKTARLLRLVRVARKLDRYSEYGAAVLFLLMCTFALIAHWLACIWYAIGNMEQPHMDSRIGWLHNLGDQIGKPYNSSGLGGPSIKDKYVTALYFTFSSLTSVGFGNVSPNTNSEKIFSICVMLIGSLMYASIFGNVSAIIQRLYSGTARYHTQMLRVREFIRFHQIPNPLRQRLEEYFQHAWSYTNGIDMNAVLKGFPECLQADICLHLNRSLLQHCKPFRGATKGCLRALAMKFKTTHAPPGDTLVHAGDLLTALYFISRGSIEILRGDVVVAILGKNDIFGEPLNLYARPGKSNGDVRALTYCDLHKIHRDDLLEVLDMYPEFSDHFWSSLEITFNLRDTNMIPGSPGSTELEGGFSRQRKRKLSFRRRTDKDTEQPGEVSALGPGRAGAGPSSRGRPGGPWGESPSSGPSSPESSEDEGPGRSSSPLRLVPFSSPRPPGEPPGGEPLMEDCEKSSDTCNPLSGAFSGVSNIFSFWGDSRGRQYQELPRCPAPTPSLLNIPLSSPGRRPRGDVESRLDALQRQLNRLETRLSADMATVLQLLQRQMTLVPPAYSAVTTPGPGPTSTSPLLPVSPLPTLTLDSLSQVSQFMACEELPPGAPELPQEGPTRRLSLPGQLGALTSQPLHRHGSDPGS
The data set is described as follows: hERG inhibition (IonWorks patch clamp electrophysiology). The format is cell-based. Particulars: maximum final assay concentration 3 μM. The method, then:
Eight-point concentration curves were generated using serial 3-fold dilutions from the maximum final assay concentration (3 μM). Electrophysiological recordings were made from a Chinese Hamster Lung cell line stably expressing the full length hERG channel. Single cell ionic currents were measured in the perforated patch clamp configuration (100 μg/mL) amphotericin) at room temperature (21-23° C.) using an IonWorks Quattro instrument. The internal solution contained (mM): 140 KCl, 1 MgCl2, 1 EGTA, 20 HEPES and was buffered to pH 7.3. The external solution contained (mM):138 NaCl, 2.7 KCl, 0.9 CaCl2, 0.5 MgCl2, 8 Na2HPO4, 1.5 KH2PO4, also buffered to pH 7.3. Cells were clamped at a holding potential of −70 mV for 30 s and then stepped to +40 mV for 1 s. This was followed by a hyperpolarising step of 1s to −30 mV to evoke the hERG tail current. This sequence was repeated 5 times at a frequency of 0.25 Hz. Currents were measured from the tail step at the 5th pulse, and referenced to the holding current. Compounds were then incubated for 6-7 minutes prior to a second measurement of the hERG signal using an identical pulse train. Eight-point concentration curves were generated using serial 3-fold dilutions from the maximum final assay concentration (3 μM).

Data set [5] has as its system PBMC cells. The data set is described as follows: Cell mitosis assay. The format is cell-based. To be noted: Homo sapiens, read-out: % Inhibition of mitosis in PBMC cells at 5 μg/mL. An outline of the steps: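 Healthy-donor PBMCs (3 million cells per sample) stimulated with 2% PHA for 48 hr, then exposed 20 hr to varying compound concentrations. Demecolcine (0.1 μg/mL) added 2 hr before collection to arrest cells in metaphase; read by flow cytometry gated on lymphocytes.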

The subject of data set [6] is IL-8 release, d-U937 cells. Briefly: LPS-induced IL-8 release in d-U937 cells. It counts as cell-based. Particulars: Homo sapiens, dU937. An outline of the steps: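 IL-8 release after a 4 hr challenge with LPS (0.1 μg/mL, E. coli 0111:B4) following a 2 hr compound pretreatment. Cells were human U937 monocytes differentiated to macrophage-type with PMA 100 ng/mL for 48–72 hr. Relative 50% effective concentration derived from concentration–response data.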

For data set [7], the system named is IL-8 release, HT29 cells. The data set is described as follows: IL-1β-induced IL-8 release in HT29 cells. It counts as cell-based. Particulars: Homo sapiens, HT-29; IL-1β stimulated; read-out: IC50 Values for Inhibition of Cytokine Release, HT29 cells, IL-8. The method, then:
(d) IL-1β-Induced IL-8 Release in HT29 Cells
HT29 cells, a human colon adenocarcinoma cell line, are plated in a 96 well plate (24 hrs) and pre-treated with compounds at the desired concentration for 2 hours before addition of 5 ng/ml of IL-1β (Abeam) for 24 hours, Supernatants are harvested for IL-8 quantification by Sandwich ELISA (Duo-set, R&D System). The IC50 is determined from the dose response curve.

Data set [8] has as its system IL-8 release, PBMCs. The data set is described as follows: LPS-induced IL-8 release in PBMC cells. The format is cell-based. Particulars: Homo sapiens, LPS stimulated, read-out: IC50 Values for Inhibition of Cytokine Release, PBMCs, IL-8. In short, it runs like this: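 PBMCs from healthy donors pretreated with compound for 2 h, then stimulated with 1 ng/ml LPS (E. coli 0111:B4) for 24 h at 37 °C, 5% CO2. Supernatant IL-8 and TNFα measured by sandwich ELISA with fluorescence read-out.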

Data set [9] concerns the target Syk (Homo sapiens, UniProt P43405). The data set is described as follows: Syk enzyme inhibition (FRET). The format is biochemical. An outline of the steps:
as §1

For data set [10], the system named is IL-2 release, PBMCs. The data set is described as follows: IL-2 release in CD3/CD28 stimulated PBMC cells. The format is cell-based. Particulars: Homo sapiens, read-out: IC50 Values for Inhibition of Cytokine Release, PBMCs, IL-2. The method, then: as §2, §3
Data set [11] concerns TNFα release, d-U937 cells. Briefly: LPS-induced TNFα release in d-U937 cells. It counts as cell-based. Particulars: Homo sapiens, dU937; for IC50: Table 4c2, different laboratory, read-out: IC50 Values for Inhibition of Cytokine Release, dU937 cells, TNFα; for EC50: relative to 10 μg/mL BIRB796, Table 4c1, read-out: LPS Induced Release of Cytokine in d-U937 Cells, TNFα REC50. An outline of the steps:
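U937 cells differentiated with PMA (100 ng/mL, 48–72 hr), pre-treated with compound for 2 hr, then stimulated with E. coli LPS (0.1 μg/mL) for 4 hr. Supernatant cytokine measured by sandwich ELISA; inhibition versus vehicle control, REC50 from concentration-response curve.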

Data set [12] has as its target p38 MAPKα isoform (MAPK14) (Homo sapiens, UniProt Q16539). The data set is described as follows: p38 MAPKα enzyme inhibition (FRET, Z-LYTE), Method 1. The format is biochemical. Particulars: Table 4a1. The method, then: The enzyme inhibitory activities of compounds disclosed herein are determined by FRET using synthetic peptides labelled with both donor and acceptor fluorophores (Z-LYTE, Invitrogen Ltd., Paisley, UK).
The following two assay variants are used for determination of p38 MAPKα inhibition.
The inhibitory activities of test compounds against the p38 MAPKα isoform (MAPK14: Invitrogen), are evaluated indirectly by determining the level of activation/phosphorylation of the down-stream molecule, MAPKAP-K2. The p38 MAPKα protein (80 ng/mL, 2.5 μL) is mixed with the test compound (2.5 μL of either 4 μg/mL, 0.4 μg/mL, 0.04 μg/mL or 0.004 μg/mL) for 2 hr at RT. […] The mixture is incubated for 1 hr at RT. Development reagent (protease, 5 μL) is added for 1 hr prior to detection in a fluorescence microplate reader (Varioskan® Flash, ThermoFisher Scientific).
In all cases, the site-specific protease cleaves non-phosphorylated peptide only and eliminates the FRET signal. Phosphorylation levels of each reaction are calculated using the ratio of coumarin emission (donor) over fluorescein emission (acceptor), for which high ratios indicate high phosphorylation and low ratios indicate low phosphorylation levels.

The subject of data set [13] is d-U937 cells. The data set is described as follows: Cell viability: MTT assay. The format is cell-based, human. Particulars: 1 μg/mL. In short, it runs like this:
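Differentiated U937 cells exposed to compound at 1 or 10 μg/mL, either 4 h in 5% FCS or 24 h in 10% FCS RPMI1640. MTT then added for 1 h, formazan dissolved in DMSO and read at 550 nm. Viability loss given as % versus 0.5% DMSO vehicle; apparent gains appear negative.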

Data set [14] has as its target T1, GSK3α. Briefly: GSK 3α enzyme inhibition (FRET), Method 1. It counts as biochemical. To be noted: Table 4a1. An outline of the steps: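 Inhibition is scored from phosphorylation of a dual-labelled synthetic peptide, measured by FRET after protease cleavage of unphosphorylated substrate. Incubations are 2 hr compound with enzyme, then 1 hr kinase reaction.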
Data set [15] relates to ICAM-1 expression, BEAS2B cells. The data set is described as follows: Poly I:C-induced ICAM-1 expression in BEAS2B cells. The format is cell-based. To be noted: Homo sapiens, BEAS-2B; read-out: Poly IC induced ICAM1 in BEAS2B, IC50. An outline of the steps:
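BEAS2B human bronchial epithelial cells pre-incubated 2 h with compound, then transfected with poly I:C (1 μg/mL) plus Oligofectamine. After 18 h, cell-surface ICAM-1 read by cell-based ELISA (A450–655), normalised to Crystal Violet cell number (A595); inhibition calculated against vehicle control at each concentration.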

Setting [16] is: Table 4a2, different laboratory.
The mark [17] stands for this setting: Table 4c2, different laboratory, read-out: IC50 Values for Inhibition of Cytokine Release, dU937 cells, IL-8.
The mark [18] stands for this setting: Table 4c1, read-out: LPS Induced Release of Cytokine in d-U937 Cells, IL-8 IC50.

Read-outs that look alike come from different tables or passages of the source. Where only a bound is given, the exact number is not on record here.

Chain of cSrc (P12931 whole entry): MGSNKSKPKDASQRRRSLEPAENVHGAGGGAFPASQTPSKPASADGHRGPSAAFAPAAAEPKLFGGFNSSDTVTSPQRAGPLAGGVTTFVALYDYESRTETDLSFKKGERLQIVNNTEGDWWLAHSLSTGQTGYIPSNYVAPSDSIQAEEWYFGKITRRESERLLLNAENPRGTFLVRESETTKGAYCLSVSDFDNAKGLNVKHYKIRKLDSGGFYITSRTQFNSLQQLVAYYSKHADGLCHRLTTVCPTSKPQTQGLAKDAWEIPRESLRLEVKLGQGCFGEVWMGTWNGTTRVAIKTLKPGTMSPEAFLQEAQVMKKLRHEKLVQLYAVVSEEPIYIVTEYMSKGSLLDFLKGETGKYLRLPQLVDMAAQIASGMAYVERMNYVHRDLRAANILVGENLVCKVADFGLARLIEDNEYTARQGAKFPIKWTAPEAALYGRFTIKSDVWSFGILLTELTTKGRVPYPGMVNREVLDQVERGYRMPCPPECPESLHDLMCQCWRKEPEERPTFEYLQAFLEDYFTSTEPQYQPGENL
Chain of p38 MAPKα isoform (MAPK14) (Q16539 whole entry, canonical isoform): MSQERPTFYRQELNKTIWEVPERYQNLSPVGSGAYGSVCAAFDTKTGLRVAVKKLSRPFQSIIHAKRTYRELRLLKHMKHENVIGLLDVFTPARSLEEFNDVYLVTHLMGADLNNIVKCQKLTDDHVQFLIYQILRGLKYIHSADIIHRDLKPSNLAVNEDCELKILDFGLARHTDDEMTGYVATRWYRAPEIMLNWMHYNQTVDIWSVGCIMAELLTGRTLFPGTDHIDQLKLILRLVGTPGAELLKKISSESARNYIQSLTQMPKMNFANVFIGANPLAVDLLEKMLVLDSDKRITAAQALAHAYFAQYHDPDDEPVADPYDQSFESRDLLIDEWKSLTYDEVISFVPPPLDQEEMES

On to `C#Cc1cc(Nc2nccc(Oc3ccc(NC(=O)Nc4cc(C(C)(C)C)nn4-c4ccc(C)cc4)c4ccccc34)n2)cc(C(=O)N[C@@H](C)CN2CCOCC2)c1` [Example 81, (S)-3-((4-((4-(3-(3-(tert-Butyl)-1-(p-tolyl)-1H-pyrazol-5-yl)ureido)naphthalen-1-yl)oxy)pyrimidin-2-yl)amino)-5-ethynyl-N-(1-morpholinopropan-2-yl)benzamide], for which the IC50 in data set [1] (setting [16]) is 21 nM; in data set [2], 1.8 nM; in data set [3] it was 10400 nM; in data set [4], greater than 3000 nM; in [6] (setting [17]), 1.5 nM; in data set [7] it was 7.4 nM. Moreover, the 50% inhibitory concentration (IC50) in data set [8] worked out at 3.2 nM; in [9] (setting [16]), 61 nM; in data set [10], 112 nM; in [11] it was 1.4 nM. The inhibition at 5 µg/mL in data set [5] is -2.6%.

Take `COc1ccc(Nc2nccc(Oc3ccc(NC(=O)Nc4cc(C(C)(C)C)nn4-c4ccc(C)cc4)c4ccccc34)n2)cc1C(=O)NCCN1CCOCC1` [Example 13, 5-((4-((4-(3-(3-(tert-Butyl)-1-(p-tolyl)-1H-pyrazol-5-yl)ureido)naphthalen-1-yl)oxy)pyrimidin-2-yl)amino)-2-methoxy-N-(2-morpholinoethyl)benzamide]: the IC50 in [1] (Table 4a1) was found to be 2 nM; in data set [6] (setting [18]) it was 0.3 nM; in data set [12], 24 nM; in data set [9] (Table 4a1), 16 nM; in [14] it was 672 nM; in data set [15], 1.7 nM. Besides, in data set [13], the “Cell viability at time point in d-U937 cells, 4 h” value is “−ve (−ve and +ve indicate that the value is below and above respectively, the no significant effect threshold, defined as 30% inhibition at 1 μg/mL at the time point indicated)”. The “Cell viability at time point in d-U937 cells, 24 h” value in data set [13] was “−ve (−ve and +ve indicate that the value is below and above respectively, the no significant effect threshold, defined as 30% inhibition at 1 μg/mL at the time point indicated)”. Moreover, the EC50 in data set [11] was determined as 0.4 nM.

Regarding `C#Cc1cc(Nc2nccc(Oc3ccc(NC(=O)Nc4cc(C(C)(C)C)nn4-c4ccc(C)cc4)c4ccccc34)n2)cc(C(=O)NCCN2CCOCC2)c1` [Example 75, 3-((4-((4-(3-(3-(tert-Butyl)-1-(p-tolyl)-1H-pyrazol-5-yl)ureido)naphthalen-1-yl)oxy)pyrimidin-2-yl)amino)-5-ethynyl-N-(2-morpholinoethyl)benzamide], the IC50 in data set [1] (setting [16]) was 11 nM; in data set [2], 3 nM; in data set [3], 1370 nM; in data set [4], greater than 3000 nM; in data set [6] (setting [17]), 0.3 nM; in data set [7] it was 1.3 nM. The IC50 in data set [8] came to 1 nM; in data set [9] (setting [16]) it was 28 nM; in [10] it was 76.9 nM; in data set [11] it was 0.4 nM. In data set [5], the inhibition at 5 µg/mL was 2.8%.

As to `COc1ccc(C(=O)NCCN(C)C)cc1Nc1nccc(Oc2ccc(NC(=O)Nc3cc(C(C)(C)C)nn3-c3ccc(C)cc3)c3ccccc23)n1` [Example 29, 3-((4-((4-(3-(3-(tert-butyl)-1-(p-tolyl)-1H-pyrazol-5-yl)ureido)naphthalen-1-yl)oxy)pyrimidin-2-yl)amino)-N-(2-(dimethylamino)ethyl)-4-methoxybenzamide], the concentration for half-maximal inhibition (IC50) was less than 1 nM in [1] (Table 4a1); 13.7 nM in [6] (setting [18]); less than 1 nM in data set [12]; 147 nM in [9] (Table 4a1); 3210 nM in [14]; 15.1 nM in [15]. In addition, the “Cell viability at time point in d-U937 cells, 4 h” value in [13] was “−ve (−ve and +ve indicate that the value is below and above respectively, the no significant effect threshold, defined as 30% inhibition at 1 μg/mL at the time point indicated)”. Besides, the “Cell viability at time point in d-U937 cells, 24 h” value in [13] is “−ve (−ve and +ve indicate that the value is below and above respectively, the no significant effect threshold, defined as 30% inhibition at 1 μg/mL at the time point indicated)”. In [11], the EC50 came to 3.8 nM.
